Data reported in ChEMBL document CHEMBL4825755 (J Med Chem, 2021).

Key:
[1] = target: PI3-kinase p110-delta/p85-alpha (Homo sapiens, UniProt O00329); test: Inhibition of recombinant human N-terminal His6-tagged full length P110delta/full length untagged human p85alpha expressed in baculovirus infected Sf21 insect cells using PIP2 as substrate preincubated for 15 mins followed by substrate addition and measured after 60 mins by HTRF assay
[2] = Lipophilicity, log D of compound by chromatographic method; format: physicochemical
PI3K p110 beta/p85 alpha = PI3K p110 beta/p85 alpha (Homo sapiens, UniProt P42338); test: Inhibition of recombinant human N-terminal His6-tagged full length P110beta/full length untagged human p85alpha expressed in baculovirus infected Sf21 insect cells using PIP2 as substrate preincubated for 15 mins followed by substrate addition and measured after 60 mins by HTRF assay
[3] = Intrinsic clearance in Wistar Han rat liver microsomes at 0.5 uM measured up to 45 mins in presence of NADPH by LC-MS/MS analysis; format: ADME, Microsome; settings: read-out: CLH
in vitro = settings: human, pooled liver microsomes
Description: Intrinsic clearance in pooled human liver microsomes at 0.5 uM measured up to 45 mins in presence of NADPH by LC-MS/MS analysis

[4] = target: Phosphatidylinositol 4,5-bisphosphate 3-kinase catalytic subunit gamma isoform (Homo sapiens, UniProt P48736); test: Inhibition of recombinant human N-terminal His6-tagged full length P120gamma expressed in baculovirus infected Sf21 insect cells using PIP2 as substrate preincubated for 15 mins followed by substrate addition and measured after 60 mins by HTRF assay
[5] = target: PI3-kinase p110-alpha/p85-alpha (Homo sapiens, UniProt P42336); test: Inhibition of recombinant human N-terminal His6-tagged full length P110alpha/full length untagged human p85alpha expressed in baculovirus infected Sf21 insect cells using PIP2 as substrate preincubated for 15 mins followed by substrate addition and measured after 60 mins by HTRF assay
[6] = target: T1, Phosphatidylinositol 4,5-bisphosphate 3-kinase catalytic subunit delta isoform (Homo sapiens, UniProt O00329); test: Inhibition of PI3Kdelta in human whole blood assessed as reduction in cytostim-stimulated IFNgamma production preincubated for 1 hr followed by cytostim stimulation and measured after 20 hrs by electrochemiluminescence assay
T1 sequence (O00329 whole entry): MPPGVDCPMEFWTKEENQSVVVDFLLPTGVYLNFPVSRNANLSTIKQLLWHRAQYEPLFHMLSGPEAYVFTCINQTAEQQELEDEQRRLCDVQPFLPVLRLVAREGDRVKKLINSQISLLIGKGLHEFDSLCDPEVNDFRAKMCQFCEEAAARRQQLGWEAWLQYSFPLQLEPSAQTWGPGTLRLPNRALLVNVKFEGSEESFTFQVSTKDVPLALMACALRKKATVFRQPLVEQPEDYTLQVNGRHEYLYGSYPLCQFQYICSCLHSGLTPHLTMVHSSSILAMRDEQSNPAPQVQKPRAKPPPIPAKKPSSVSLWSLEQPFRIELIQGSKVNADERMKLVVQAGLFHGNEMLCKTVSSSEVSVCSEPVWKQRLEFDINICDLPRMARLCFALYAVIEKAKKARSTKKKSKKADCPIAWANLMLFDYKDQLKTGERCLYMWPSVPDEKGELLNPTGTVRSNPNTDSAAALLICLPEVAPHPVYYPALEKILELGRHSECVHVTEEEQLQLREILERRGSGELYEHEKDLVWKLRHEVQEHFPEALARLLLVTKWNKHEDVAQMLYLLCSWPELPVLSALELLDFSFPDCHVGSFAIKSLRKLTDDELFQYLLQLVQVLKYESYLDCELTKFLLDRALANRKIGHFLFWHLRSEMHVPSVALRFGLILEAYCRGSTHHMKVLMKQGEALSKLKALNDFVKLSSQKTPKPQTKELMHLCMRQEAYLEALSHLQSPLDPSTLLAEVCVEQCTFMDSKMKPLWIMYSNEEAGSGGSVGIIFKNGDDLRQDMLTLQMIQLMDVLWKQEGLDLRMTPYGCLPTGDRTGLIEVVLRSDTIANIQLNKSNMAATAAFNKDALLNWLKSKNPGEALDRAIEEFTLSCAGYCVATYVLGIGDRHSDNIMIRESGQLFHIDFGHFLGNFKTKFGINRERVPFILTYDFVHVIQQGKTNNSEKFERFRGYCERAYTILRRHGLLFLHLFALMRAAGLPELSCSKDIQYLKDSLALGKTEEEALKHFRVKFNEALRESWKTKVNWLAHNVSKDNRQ

Sequence of PI3-kinase p110-delta/p85-alpha (P27986 whole entry, one chain of several): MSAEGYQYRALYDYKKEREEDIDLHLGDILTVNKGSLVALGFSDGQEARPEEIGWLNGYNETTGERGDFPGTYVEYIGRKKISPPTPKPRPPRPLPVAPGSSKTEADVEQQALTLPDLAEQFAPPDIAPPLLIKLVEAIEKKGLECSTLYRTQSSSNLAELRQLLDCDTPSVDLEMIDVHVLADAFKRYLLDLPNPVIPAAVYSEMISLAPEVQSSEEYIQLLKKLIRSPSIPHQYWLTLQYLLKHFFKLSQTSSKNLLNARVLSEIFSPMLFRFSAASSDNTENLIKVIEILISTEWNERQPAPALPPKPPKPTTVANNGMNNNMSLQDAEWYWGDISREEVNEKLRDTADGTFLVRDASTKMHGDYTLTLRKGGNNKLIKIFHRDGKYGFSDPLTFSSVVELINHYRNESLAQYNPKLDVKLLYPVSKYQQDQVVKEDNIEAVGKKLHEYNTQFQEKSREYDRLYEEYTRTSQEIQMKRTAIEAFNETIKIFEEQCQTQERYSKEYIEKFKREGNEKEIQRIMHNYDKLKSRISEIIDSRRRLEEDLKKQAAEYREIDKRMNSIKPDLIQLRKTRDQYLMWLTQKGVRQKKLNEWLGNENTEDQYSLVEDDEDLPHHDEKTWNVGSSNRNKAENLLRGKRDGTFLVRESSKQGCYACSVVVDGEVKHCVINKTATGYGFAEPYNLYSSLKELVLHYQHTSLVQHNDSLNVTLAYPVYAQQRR
Sequence of PI3-kinase p110-alpha/p85-alpha (P27986 whole entry, canonical isoform): as the sequence (P27986 whole entry, one chain of several) above
Sequence of PI3-kinase p110-alpha/p85-alpha (P42336 whole entry, canonical isoform): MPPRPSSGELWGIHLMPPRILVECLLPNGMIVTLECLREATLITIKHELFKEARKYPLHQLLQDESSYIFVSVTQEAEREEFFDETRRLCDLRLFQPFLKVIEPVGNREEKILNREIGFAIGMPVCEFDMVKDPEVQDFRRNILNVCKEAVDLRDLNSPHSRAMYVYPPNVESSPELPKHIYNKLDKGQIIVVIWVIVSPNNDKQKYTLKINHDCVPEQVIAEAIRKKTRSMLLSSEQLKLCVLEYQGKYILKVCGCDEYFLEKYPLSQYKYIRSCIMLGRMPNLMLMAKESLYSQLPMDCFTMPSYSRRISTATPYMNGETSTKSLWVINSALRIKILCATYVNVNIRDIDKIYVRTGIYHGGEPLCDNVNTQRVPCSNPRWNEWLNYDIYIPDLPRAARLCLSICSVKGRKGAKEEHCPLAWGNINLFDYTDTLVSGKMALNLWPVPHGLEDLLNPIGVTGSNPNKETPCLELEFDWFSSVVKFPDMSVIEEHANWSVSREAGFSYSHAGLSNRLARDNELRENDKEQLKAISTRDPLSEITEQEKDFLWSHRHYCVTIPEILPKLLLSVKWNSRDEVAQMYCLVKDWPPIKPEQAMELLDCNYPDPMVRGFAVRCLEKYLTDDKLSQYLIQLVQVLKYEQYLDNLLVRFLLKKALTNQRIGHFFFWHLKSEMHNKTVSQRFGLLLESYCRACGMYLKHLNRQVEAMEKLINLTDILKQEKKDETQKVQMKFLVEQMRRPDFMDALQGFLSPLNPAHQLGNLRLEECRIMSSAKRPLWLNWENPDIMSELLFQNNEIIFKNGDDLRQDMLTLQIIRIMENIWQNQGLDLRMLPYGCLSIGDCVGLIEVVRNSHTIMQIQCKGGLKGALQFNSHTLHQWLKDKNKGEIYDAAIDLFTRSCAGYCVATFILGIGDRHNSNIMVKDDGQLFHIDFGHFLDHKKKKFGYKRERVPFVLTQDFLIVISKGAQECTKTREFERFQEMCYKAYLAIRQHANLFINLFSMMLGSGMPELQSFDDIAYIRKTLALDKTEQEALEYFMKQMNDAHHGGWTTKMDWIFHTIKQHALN
Sequence of PI3K p110 beta/p85 alpha (P27986 whole entry): as the sequence (P27986 whole entry, one chain of several) above
Sequence of PI3K p110 beta/p85 alpha (P42338 whole entry): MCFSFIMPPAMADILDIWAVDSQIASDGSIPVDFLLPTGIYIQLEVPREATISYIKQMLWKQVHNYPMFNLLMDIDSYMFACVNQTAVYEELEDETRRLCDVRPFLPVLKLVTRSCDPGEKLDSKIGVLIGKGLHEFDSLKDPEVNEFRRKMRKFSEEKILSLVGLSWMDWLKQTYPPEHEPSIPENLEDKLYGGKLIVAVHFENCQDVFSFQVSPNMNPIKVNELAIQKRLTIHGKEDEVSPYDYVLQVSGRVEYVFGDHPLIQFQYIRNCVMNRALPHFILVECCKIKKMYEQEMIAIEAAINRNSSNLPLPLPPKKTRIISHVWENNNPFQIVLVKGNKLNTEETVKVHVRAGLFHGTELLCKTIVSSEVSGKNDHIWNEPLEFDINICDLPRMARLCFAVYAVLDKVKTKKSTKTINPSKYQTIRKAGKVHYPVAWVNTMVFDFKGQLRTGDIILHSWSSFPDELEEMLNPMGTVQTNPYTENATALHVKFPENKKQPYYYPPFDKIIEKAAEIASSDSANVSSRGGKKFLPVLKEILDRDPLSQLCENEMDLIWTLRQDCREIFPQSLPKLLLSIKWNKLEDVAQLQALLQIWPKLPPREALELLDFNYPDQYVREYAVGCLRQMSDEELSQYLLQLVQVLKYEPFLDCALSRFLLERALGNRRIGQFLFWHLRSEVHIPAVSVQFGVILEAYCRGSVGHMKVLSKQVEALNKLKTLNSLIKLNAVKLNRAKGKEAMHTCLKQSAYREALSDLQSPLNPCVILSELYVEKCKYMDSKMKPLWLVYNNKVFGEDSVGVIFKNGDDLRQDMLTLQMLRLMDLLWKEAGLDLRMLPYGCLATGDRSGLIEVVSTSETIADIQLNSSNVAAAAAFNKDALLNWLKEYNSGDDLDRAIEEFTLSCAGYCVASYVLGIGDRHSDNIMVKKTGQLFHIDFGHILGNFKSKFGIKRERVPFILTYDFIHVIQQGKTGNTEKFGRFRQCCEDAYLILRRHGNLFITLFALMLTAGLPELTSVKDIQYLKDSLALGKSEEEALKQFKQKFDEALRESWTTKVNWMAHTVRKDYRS
Sequence of Phosphatidylinositol 4,5-bisphosphate 3-kinase catalytic subunit gamma isoform (P48736 whole entry, canonical isoform): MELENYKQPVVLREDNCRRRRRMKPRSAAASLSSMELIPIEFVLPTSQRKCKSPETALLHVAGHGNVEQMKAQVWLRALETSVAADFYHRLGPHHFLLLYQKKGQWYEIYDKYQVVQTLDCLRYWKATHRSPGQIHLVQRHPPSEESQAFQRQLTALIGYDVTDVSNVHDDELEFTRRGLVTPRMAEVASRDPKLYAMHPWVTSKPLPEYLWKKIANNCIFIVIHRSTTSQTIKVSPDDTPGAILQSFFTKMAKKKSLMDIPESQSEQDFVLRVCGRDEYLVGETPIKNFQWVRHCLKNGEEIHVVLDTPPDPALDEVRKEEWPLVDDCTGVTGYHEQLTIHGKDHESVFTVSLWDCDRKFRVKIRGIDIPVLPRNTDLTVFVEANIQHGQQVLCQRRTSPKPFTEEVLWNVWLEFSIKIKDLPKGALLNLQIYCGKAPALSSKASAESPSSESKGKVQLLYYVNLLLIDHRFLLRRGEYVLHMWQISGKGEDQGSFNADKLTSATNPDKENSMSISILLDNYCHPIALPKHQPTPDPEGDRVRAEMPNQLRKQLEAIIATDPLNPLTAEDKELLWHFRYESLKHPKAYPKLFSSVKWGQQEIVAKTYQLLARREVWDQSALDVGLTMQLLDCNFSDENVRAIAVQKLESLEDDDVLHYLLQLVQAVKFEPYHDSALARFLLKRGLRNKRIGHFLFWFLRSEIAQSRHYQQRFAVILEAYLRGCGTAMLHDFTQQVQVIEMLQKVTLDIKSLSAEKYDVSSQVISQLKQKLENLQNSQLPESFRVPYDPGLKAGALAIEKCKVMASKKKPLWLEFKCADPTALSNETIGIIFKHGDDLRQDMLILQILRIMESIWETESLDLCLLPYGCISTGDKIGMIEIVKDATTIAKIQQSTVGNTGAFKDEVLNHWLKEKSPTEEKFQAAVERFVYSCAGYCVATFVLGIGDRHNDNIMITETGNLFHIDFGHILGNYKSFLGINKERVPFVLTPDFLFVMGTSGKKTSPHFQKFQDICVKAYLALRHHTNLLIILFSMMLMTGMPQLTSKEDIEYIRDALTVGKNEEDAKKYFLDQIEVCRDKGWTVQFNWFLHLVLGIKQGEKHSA

Compound | IC50 [1] [nM] | chromatographic logD [2] | IC50 (PI3K p110 beta/p85 alpha) [nM] | CLint scaled at 0.5 µM [3] [mL/min/kg] | CLint scaled at 0.75 h, 0.5 µM (in vitro) [mL/min/kg] | IC50 [4] [nM] | IC50 [5] [nM] | IC50 [6] [nM] | Ki [1] [nM]
COc1ncc(C2=CCOCC2)cc1S(=O)(=O)Nc1cncc(C#CCN2C[C@@H](C)O[C@@H](C)C2)c1 | 3.98 | 3.6 | 5010 | 5.59 | 3.64 | 5010 | 6310 |  | 
COc1ncc(C2=CCOCC2)cc1S(=O)(=O)Nc1ccccc1 | 200 |  | 2510 |  |  | 7940 | 3980 | 3980 | 
COc1ncc(C2=CCOCC2)cc1S(=O)(=O)Nc1cncc(-c2ccc(N3CCN(C(C)C)CC3)cc2)c1 | 3.16 | 3.8 | 316 |  |  | 7940 | 316 | 50.1 | 
COc1ncc(C2=CCOCC2)cc1S(=O)(=O)Nc1cncc(-c2ccc(CN3CCN(C)CC3)cc2)c1 | 3.16 | 2.3 | 501 | 0.96 | 1.64 | 3160 | 251 | 39.8 | 
COc1ncc(N2CCOCC2)cc1S(=O)(=O)Nc1ccnc(-c2ccc(CN3C[C@@H](C)O[C@@H](C)C3)cc2F)c1 | 1 | 3.9 | 1580 | 0.59 | 0.87 | 251 | 1260 | 7.94 | 0.0316
COc1ncc(N2CCOCC2)cc1S(=O)(=O)Nc1ccnc(-c2ccc(CN3CCN(C(C)C)CC3)c(F)c2)c1 | 1.58 | 1.8 | 7940 | < 0.46 | < 0.4 | 3980 | 1580 | 3.16 | 0.0501
COc1ncc(C2=CCOCC2)cc1S(=O)(=O)Nc1cncc(C2=CCN(C)CC2)c1 | 316 | 1.5 | 5010 |  |  | 5010 | 20000 |  | 
COc1ncc(C2=CCOCC2)cc1S(=O)(=O)Nc1cncc(-c2ccc(CN3CCCCC3)s2)c1 | 2.51 | 4.7 | 100 |  |  | 1580 | 1580 | 31.6 | 
COc1ncc(N2CCOCC2)cc1S(=O)(=O)Nc1cncc(-c2ccc(CN3CCN(C(C)C)CC3)cc2F)c1 [listing 1 of 2 here] | 1.26 | 2.6 | 3980 | < 0.46 | 0.65 | 2510 | 501 |  | 
COc1ncc(N2CCOCC2)cc1S(=O)(=O)Nc1cncc(-c2ccc(CN3CCCC3)cc2)c1 | 20 | 1.9 | 2000 | < 0.46 | < 0.4 |  | 5010 | 79.4 | 
COc1ncc(N2CCOCC2)cc1S(=O)(=O)Nc1ccnc(-c2ccc(CN3CCN(C(C)(C)C)CC3)cc2)c1 | 0.794 | 1.3 |  | < 0.46 | < 0.4 |  |  | 7.94 | 0.0251
COc1ncc(N2CCOCC2)cc1S(=O)(=O)Nc1cncc(-c2ccc(CN3CCN(C(C)C)CC3)cc2F)c1 [listing 2 of 2 here] |  |  |  |  |  |  |  | 3.16 | 
COc1ncc(C2=CCOCC2)cc1S(=O)(=O)Nc1cncc(C2CC2CN(C)C)c1 (stereo unspecified) | 126 | 1.2 | 1260 |  |  | 7940 | 6310 |  | 
